Assay results published in US9296722B2, “Azolyl urea compounds and methods of use thereof” (Ambit Biosciences Corporation, priority 2010, dated 2016).
pIC50, pKd: −log10 of the molar value.

Key:
[1] = target: kinase panel containing either 359 or 386 distinct kinases; assay: Competition binding assay, selectivity score (S10) against a panel of kinases; details: compounds at 10 μM; fraction of kinases with percent of control less than 10
Experimental: Competition binding assays used herein were developed, validated and performed as described in Fabian et al., Nature Biotechnology 2005, 23, 329-336. Kinases were produced as fusions to T7 phage (See, Fabian et al. or WO04/015142) or alternatively, the kinases were expressed in HEK-293 cells and subsequently tagged with DNA for PCR detection (See, WO08/005,310). […] The liganded beads were blocked with excess biotin and washed with blocking buffer (SeaBlock (Pierce), 1% BSA, 0.05% Tween 20, 1 mM DTT) to remove unbound ligand and to reduce non-specific binding. […] Test compounds were prepared as 100× stocks in DMSO and diluted into the aqueous environment. Kds were determined using an eleven point threefold serial dilutions. DMSO or control compounds were was added to control assays lacking a test compound. Primary screen assays were performed in polypropylene 384-well plates in a final volume of 20-40 μL, while Kd determinations were performed in polystyrene 96-well plates in a final volume of […]. […] The kinase concentration in the eluates was measured by quantitative PCR.
A selectivity score (S10) is a quantitative measure of selectivity of a compound against a panel of kinases. An S10 was calculated for a compound by dividing the number of kinases found to have a percent of control (DMSO) less than 10 by the total number of distinct kinases tested (excluding mutant variants). Percent of control (POC) is calculated by subtracting the signal of the control compound
(POC=0) from the signal of the test compound and dividing the outcome by the signal of DMSO (POC=100) minus the signal of the control compound. For the compounds disclosed herein, S10 scores were obtained by testing the compounds at 10 μM concentration in a kinase panel containing either 359 or 386 distinct kinases.

CSF1R (human) = target: T1, CSF1R (human) (Homo sapiens, UniProt P07333); assay: Competition binding assay, CSF1R (human) Kd
T1 construct: made in house; host or cells: T7 phage display or HEK-293 cells (alternatives, not resolved per kinase)
Experimental: The liganded beads were blocked with excess biotin and washed with blocking buffer (SeaBlock (Pierce), 1% BSA, 0.05% Tween 20, 1 mM DTT) to remove unbound ligand and to reduce non-specific binding. […] Test compounds were prepared as 100× stocks in DMSO and diluted into the aqueous environment. Kds were determined using an eleven point threefold serial dilutions. DMSO or control compounds were was added to control assays lacking a test compound. […] The kinase concentration in the eluates was measured by quantitative PCR.

M-NFS-60 cells = assay: M-NFS-60 cell proliferation assay; assay type: cell-based, mouse; details: Mus musculus; 72 hours incubation, Alamar Blue, M-CSF-dependent cells; read-out: CSF1R Cell Proliferation (M-NFS-60) IC50
Experimental: In certain embodiments, the compounds disclosed herein are tested in an M-NFS-60 cell proliferation assay to determine their cellular potency against CSF-1R. M-NFS-60s are mouse monocytic cells that depend on the binding of the ligand M-CSF to its receptor, CSF-1R, to proliferate Inhibition of CSF-1R kinase activity will cause reduced growth and/or cell death. This assay assesses the potency of compounds as CSF-1R inhibitors by measuring the reduction of Alamar Blue reagent by viable cells. An exemplary assay is described in the Examples section.
The compounds disclosed herein were tested in an M-NFS-60 cell proliferation assay to determine their cellular potency against CSF1R. M-NFS-60s are mouse monocytic cells that depend on the binding of the ligand M-CSF to its receptor, CSF1R, to proliferate Inhibition of CSF1R kinase activity will cause reduced growth and/or cell death. This assay assesses the potency of compounds as CSF1R inhibitors by measuring the reduction of Alamar Blue reagent by viable cells.
On day one of the experiment, M-NFS-60 cells were maintained in RPMI complete medium (Omega Scientific) plus 10% FBS supplemented with 20 ng/mL of M-CSF (R&D Systems). 96-well TC-treated, flat bottom plates were seeded at 10,000 cell/well at a volume of 100 μL per well. The cells were cultured overnight at 37° C. under 5% CO2.
On day two, compounds were added to the cells at 9 different concentrations, with half-log intervals alongside a control reference compound serving as a positive control. Final DMSO concentration was kept at 0.5% for a final volume of 200 μL. The compounds were allowed to incubate with the cells for 72 hours at 37° C. under 5% CO2.
On day five of the experiment, 40 μl of Alamar Blue reagent was added to each well and allowed to incubate for 3 hours. Alamar Blue fluorescence was read using SoftMax Pro software at 560 nm (excitation) and 590 nm (emission). IC50s were generated as an average of duplicates and represents the concentration of test compound that achieves 50% inhibition of cellular proliferation compared to control.

T1 sequence (P07333 20-972): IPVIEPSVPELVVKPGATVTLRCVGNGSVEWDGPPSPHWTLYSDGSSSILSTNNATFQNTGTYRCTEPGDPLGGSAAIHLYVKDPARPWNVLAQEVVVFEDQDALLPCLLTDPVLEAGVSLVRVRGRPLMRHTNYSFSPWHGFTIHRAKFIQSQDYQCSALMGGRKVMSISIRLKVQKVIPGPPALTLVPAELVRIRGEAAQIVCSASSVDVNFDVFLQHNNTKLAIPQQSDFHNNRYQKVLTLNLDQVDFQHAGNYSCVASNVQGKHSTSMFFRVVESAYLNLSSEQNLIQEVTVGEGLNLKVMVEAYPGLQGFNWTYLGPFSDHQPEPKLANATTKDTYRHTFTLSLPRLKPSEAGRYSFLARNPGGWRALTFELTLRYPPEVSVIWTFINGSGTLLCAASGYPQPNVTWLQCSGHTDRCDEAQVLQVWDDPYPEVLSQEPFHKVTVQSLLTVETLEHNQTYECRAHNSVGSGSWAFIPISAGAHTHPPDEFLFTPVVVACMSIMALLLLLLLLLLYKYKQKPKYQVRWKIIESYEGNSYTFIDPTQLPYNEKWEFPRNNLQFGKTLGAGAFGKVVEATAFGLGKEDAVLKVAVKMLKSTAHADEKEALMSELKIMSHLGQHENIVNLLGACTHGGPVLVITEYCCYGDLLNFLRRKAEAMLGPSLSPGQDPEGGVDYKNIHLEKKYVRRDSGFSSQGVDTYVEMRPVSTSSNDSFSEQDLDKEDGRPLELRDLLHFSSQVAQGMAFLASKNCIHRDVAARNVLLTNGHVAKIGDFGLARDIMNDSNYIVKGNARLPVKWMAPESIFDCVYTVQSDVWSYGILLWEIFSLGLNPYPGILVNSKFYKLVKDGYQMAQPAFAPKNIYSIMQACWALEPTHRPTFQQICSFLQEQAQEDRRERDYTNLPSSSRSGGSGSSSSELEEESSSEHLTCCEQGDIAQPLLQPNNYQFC

SMILES | Kinase Specificity (S10) [1] | pKd (CSF1R (human)) | pIC50 (M-NFS-60 cells)
CC(C)(C)c1cc(NC(=O)Nc2ccc(NC(=O)c3cc(OC4CCNCC4)ccn3)cc2)no1 | B (0.03 < B ≦ 0.05) | – | –
CCN1CCC(Oc2ccnc(C(=O)Nc3ccc(NC(=O)Nc4cc(C(C)(C)C)on4)cc3)c2)CC1 | B (0.03 < B ≦ 0.05) | – | –
CC(C)(C)c1cc(NC(=O)Nc2ccc(NC(=O)c3ccc(OC4CCNCC4)cn3)cc2)no1 | C (C > 0.05) | – | –
CCN1CCC(Oc2ccc(C(=O)Nc3ccc(NC(=O)Nc4cc(C(C)(C)C)on4)cc3)nc2)CC1 | C (C > 0.05) | – | –
CCN1CCC(Cc2ccc(C(=O)Nc3ccc(NC(=O)Nc4cc(C(C)(C)C)on4)cc3)nc2)CC1 | B (0.03 < B ≦ 0.05) | – | –
CCN1CCC(c2ccc(C(=O)Nc3ccc(NC(=O)Nc4cc(C(C)(C)C)on4)cc3)nc2)CC1 | B (0.03 < B ≦ 0.05) | – | –
CN1CCN(Cc2ccc(C(=O)Nc3ccc(NC(=O)Nc4cc(C(C)(C)C)on4)cc3)nc2)CC1 | A (A ≦ 0.03) | – | –
CC(C)(C)c1cc(NC(=O)Nc2ccc(NC(=O)c3ccc(OC4CCN(CC(F)(F)F)CC4)cn3)cc2)no1 | A (A ≦ 0.03) | – | –
CC(C)N1CCC(Oc2ccc(C(=O)Nc3ccc(NC(=O)Nc4cc(C(C)(C)C)on4)cc3)nc2)CC1 | B (0.03 < B ≦ 0.05) | – | –
CN1C(C)(C)CC(Oc2ccc(C(=O)Nc3ccc(NC(=O)Nc4cc(C(C)(C)C)on4)cc3)nc2)CC1(C)C | C (C > 0.05) | – | –
CC(C)(C)c1cc(NC(=O)Nc2ccc(NC(=O)c3ccc(OC4CCN(C5CC5)CC4)cn3)cc2)no1 | A (A ≦ 0.03) | – | –
CC(C)(C)c1cc(NC(=O)Nc2ccc(NC(=O)c3ccc(OC4CCN(C(C)(C)C)CC4)cn3)cc2)no1 | B (0.03 < B ≦ 0.05) | – | –
CN1C(C)(C)CC(Oc2ccc(C(=O)Nc3ccc(NC(=O)Nc4cc(C(C)(CF)CF)on4)cc3)nc2)CC1(C)C | B (0.03 < B ≦ 0.05) | > 8.52 | ≥ 7.00
CN1C(C)(C)CC(Oc2ccc(C(=O)Nc3ccc(NC(=O)Nc4cc(C(C)(C)C(F)(F)F)on4)cc3)nc2)CC1(C)C | B (0.03 < B ≦ 0.05) | 8.00 to 8.52 | ≥ 7.00
CN1C(COc2ccc(C(=O)Nc3ccc(NC(=O)Nc4cc(C(C)(C)C)on4)cc3)nc2)CCC1(C)C (stereo not shown) | B (0.03 < B ≦ 0.05) | 8.00 to 8.52 | ≥ 7.00
CCN1C(C)(C)CC(Oc2ccc(C(=O)Nc3ccc(NC(=O)Nc4cc(C(C)(C)C)on4)cc3)nc2)CC1(C)C | A (A ≦ 0.03) | > 8.52 | ≥ 7.00
CN1C(C)(C)CC(Oc2ccc(C(=O)Nc3ccc(NC(=O)Nc4cc(C(C)(C)C)no4)cc3)nc2)CC1(C)C | B (0.03 < B ≦ 0.05) | 8.00 to 8.52 | ≥ 7.00
CC(C)N1CCC(Oc2ccc(C(=O)Nc3ccc(NC(=O)Nc4cc(C(C)(C)C)no4)cc3)nc2)CC1 | B (0.03 < B ≦ 0.05) | 8.00 to 8.52 | ≥ 7.00
CC(C)N1CC[C@@H](COc2ccc(C(=O)Nc3ccc(NC(=O)Nc4cc(C(C)(C)C)on4)cc3)nc2)C1 | C (C > 0.05) | > 8.52 | ≥ 7.00
CCN1C(C)(C)CC(Oc2ccc(C(=O)Nc3ccc(NC(=O)Nc4cc(C(C)(C)C)no4)cc3)nc2)CC1(C)C | B (0.03 < B ≦ 0.05) | < 8.00 | ≥ 7.00
CCN1CCC(Oc2ccc(C(=O)Nc3ccc(NC(=O)Nc4cc(C(C)(C)C)no4)cc3)nc2)CC1 | B (0.03 < B ≦ 0.05) | 8.00 to 8.52 | ≥ 7.00
CCN1CC[C@@H](COc2ccc(C(=O)Nc3ccc(NC(=O)Nc4cc(C(C)(C)C)on4)cc3)nc2)C1 | C (C > 0.05) | < 8.00 | ≥ 7.00
CN1C(C)(C)CC(=O)C(c2ccc(C(=O)Nc3ccc(NC(=O)Nc4cc(C(C)(C)C)on4)cc3)nc2)C1(C)C (stereo not shown) | A (A ≦ 0.03) | > 8.52 | 6.60 to 7.00
CC1(C)CC(Oc2ccc(C(=O)Nc3ccc(NC(=O)Nc4cc(C(C)(C)C)on4)cc3)nc2)CC(C)(C)N1 | C (C > 0.05) | – | –
